# Experimental data from patent US6500624B1, “Kainate-binding, human CNS receptors of the EAA3 family” (NPS Allelix Corp., priority 1992, dated 2002).
# Biological target: T1, human EAA3a receptor (Homo sapiens, UniProt P39086)
# T1 construct: To provide the entire coding region of the receptor; expressed in transfected cells; host or cells: COS-1 (monkey, ATCC CRL 1650), transient transfection with pcDNAIA/humEAA3a; membrane preparation
# Assay: NMDA binding to membranes of EAA3a-producing COS cells
# Settings: EAA3a-producing COS cell membranes
# T1 sequence (P39086 31-905 isoform P39086-2 limits assumed): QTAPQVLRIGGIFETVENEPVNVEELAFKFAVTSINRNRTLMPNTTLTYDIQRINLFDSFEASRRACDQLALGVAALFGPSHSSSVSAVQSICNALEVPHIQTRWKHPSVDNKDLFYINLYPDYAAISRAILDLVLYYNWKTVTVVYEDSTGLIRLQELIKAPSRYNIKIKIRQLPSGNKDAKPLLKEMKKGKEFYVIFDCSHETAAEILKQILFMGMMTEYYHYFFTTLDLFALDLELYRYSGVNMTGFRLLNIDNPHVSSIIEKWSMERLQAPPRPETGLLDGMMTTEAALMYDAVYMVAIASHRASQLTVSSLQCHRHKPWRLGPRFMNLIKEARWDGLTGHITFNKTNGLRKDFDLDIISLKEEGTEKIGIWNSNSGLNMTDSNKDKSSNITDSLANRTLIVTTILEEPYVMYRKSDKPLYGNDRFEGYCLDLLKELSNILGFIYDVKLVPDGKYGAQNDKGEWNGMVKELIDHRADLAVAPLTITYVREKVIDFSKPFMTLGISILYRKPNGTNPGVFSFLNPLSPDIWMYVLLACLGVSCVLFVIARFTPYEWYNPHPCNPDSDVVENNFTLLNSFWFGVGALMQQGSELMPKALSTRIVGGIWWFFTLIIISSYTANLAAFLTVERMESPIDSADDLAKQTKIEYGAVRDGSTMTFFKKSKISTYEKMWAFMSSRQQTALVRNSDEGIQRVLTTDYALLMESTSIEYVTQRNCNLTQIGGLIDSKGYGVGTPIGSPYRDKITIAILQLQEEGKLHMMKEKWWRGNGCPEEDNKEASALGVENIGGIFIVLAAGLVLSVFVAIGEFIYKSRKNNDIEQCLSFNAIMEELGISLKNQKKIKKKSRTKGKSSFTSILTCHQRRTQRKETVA
compound,measurement,value
"CN[C@H](CC(=O)O)C(=O)O [NMDA, N-methyl-D-aspartate]",binding of NMDA,little or no demonstrable binding
